Assay results as given in ChEMBL document CHEMBL1138139, “Synthesis of 1-(3',4',5'-trimethoxy) phenyl naphtho[2,1b]furan as a novel anticancer agent” (Bioorg Med Chem Lett, 2006).
Converted amounts (≈) assume the structure as drawn.

How the values were obtained:
Type in all cases: functional, cell-based
PA-1 = test: Cytotoxicity against human PA1 cell line by MTT assay
KB = test: Cytotoxicity against human KB403 cell line by MTT assay
WRL68 = test: Cytotoxicity against human WRL68 cell line by MTT assay
COLO 320DM = test: Cytotoxicity against human COLO320DM cell line by MTT assay
Caco-2 = test: Cytotoxicity against human Caco-2 cell line by MTT assay
MCF7 = test: Cytotoxicity against MCF7 cell line by MTT assay; settings: Homo sapiens

SMILES	IC50 (PA-1)	IC90 (PA-1)	IC50 (KB)	IC90 (KB)	IC50 (WRL68)	IC90 (WRL68)	IC50 (COLO 320DM)	IC90 (COLO 320DM)	IC50 (Caco-2)	IC90 (Caco-2)	IC90 (MCF7)
CC(=O)O[C@H]1C(=O)[C@@]2(C)[C@H]([C@H](OC(=O)c3ccccc3)[C@]3(O)C[C@H](OC(=O)[C@H](O)[C@@H](NC(=O)c4ccccc4)c4ccccc4)C(C)=C1C3(C)C)[C@]1(OC(C)=O)CO[C@@H]1C[C@@H]2O [PACLITAXEL]	0.006 µg/mL (≈ 0.00703 µM)	0.9 µg/mL (≈ 1.05 µM)	0.001 µg/mL (≈ 0.00117 µM)	0.047 µg/mL (≈ 0.055 µM)	0.0035 µg/mL (≈ 0.0041 µM)	2.5 µg/mL (≈ 2.93 µM)	0.0045 µg/mL (≈ 0.00527 µM)	0.01 µg/mL (≈ 0.0117 µM)	0.007 µg/mL (≈ 0.0082 µM)	0.065 µg/mL (≈ 0.0761 µM)	0.85 µg/mL (≈ 0.995 µM)
c1ccc(-c2coc3ccc4ccccc4c23)cc1	–	–	9 µg/mL (≈ 36.8 µM)	–	–	–	–	–	–	–	–
COc1cc(-c2coc3ccc4ccccc4c23)cc(OC)c1OC	3.5 µg/mL (≈ 10.5 µM)	4.5 µg/mL (≈ 13.5 µM)	8 µg/mL (≈ 23.9 µM)	10 µg/mL (≈ 29.9 µM)	0.7 µg/mL (≈ 2.09 µM)	5 µg/mL (≈ 15 µM)	0.65 µg/mL (≈ 1.94 µM)	4 µg/mL (≈ 12 µM)	0.5 µg/mL (≈ 1.5 µM)	–	–
COc1ccc(-c2coc3ccc4ccccc4c23)cc1	4 µg/mL (≈ 14.6 µM)	8 µg/mL (≈ 29.2 µM)	–	–	6 µg/mL (≈ 21.9 µM)	–	5 µg/mL (≈ 18.2 µM)	–	0.95 µg/mL (≈ 3.46 µM)	7.5 µg/mL (≈ 27.3 µM)	–
